ChEMBL document CHEMBL1201862, “PubChem BioAssay data set” (2004)
“And” between values parts separate entries of the source, which are not always exact repeats. Equal entries are not always repeated.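 Briefly, cells in 96-well plates were exposed to five compound concentrations for 48 h, and endpoints were estimated by linear interpolation. GI50 is the concentration that inhibits growth by half.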 The source made the active and inactive calls. Rule as the data show it: active = GI50 up to about 1.1 µM and inactive = higher. Where a SMILES comes first, the peptide text is derived from it. [ ]: non-standard residue; d: D form. The star is where a group is joined. Phe(4-NO2) = N[CH](Cc1ccc([N+](=O)[O-])cc1)C(=O)O; Boc = CC(C)(C)OC(=O)*; OtBu = CC(C)(C)O*

Assays:
Assay in all cases: NCI anticancer screen, dose series, 48 h
UACC-257 = system: UACC-257
SK-MEL-28 = system: SK-MEL-28
T47D = system: T47D
SF-268 = system: SF-268
NCI-H460 = system: NCI-H460
NCI-H226 = system: NCI-H226
NCI-H23 = system: NCI-H23
EKVX = system: EKVX
SNB-75 = system: SNB-75
MDA-MB-231 = system: MDA-MB-231
OVCAR-4 = system: OVCAR-4
SF-295 = system: SF-295
HOP-92 = system: HOP-92
SK-OV-3 = system: SK-OV-3
SK-MEL-5 = system: SK-MEL-5
OVCAR-8 = system: OVCAR-8
HCC 2998 = system: HCC 2998
K562 = system: K562
Hs-578T = system: Hs-578T
Malme-3M = system: Malme-3M

Measured: GI50

CC(=O)/C(=C/n1ccc(=O)[nH]c1=S)C(=O)Nc1ccccc1C
inactive: UACC-257 > 100 µM | SK-MEL-28 > 100 µM | T47D > 100 µM | SF-268 > 100 µM | NCI-H460 > 100 µM | NCI-H226 > 100 µM | NCI-H23 > 100 µM | EKVX > 100 µM | SNB-75 > 100 µM | MDA-MB-231 > 100 µM | OVCAR-4 > 100 µM | SF-295 > 100 µM | HOP-92 > 100 µM | SK-OV-3 > 100 µM | SK-MEL-5 > 100 µM | OVCAR-8 > 100 µM | HCC 2998 > 100 µM

O[C@H]1[C@@H]2OC[C@@H](O)[C@H](OCc3ccccc3)[C@@](COCc3ccccc3)(O2)[C@@H]1OCc1ccccc1
inactive: UACC-257 14.8 µM | SK-MEL-28 14.1 µM | K562 25.4 µM | SF-268 22.2 µM | NCI-H460 20.3 µM | NCI-H23 17.1 µM | EKVX 14.5 µM | SNB-75 2.39 µM | MDA-MB-231 17 µM | OVCAR-4 12 µM | SF-295 12.6 µM | HOP-92 10.2 µM | SK-OV-3 21.6 µM | Hs-578T 14.7 µM | Malme-3M 13.6 µM | OVCAR-8 16.7 µM

O=c1c2cc(-c3ccccc3)cnc2sn1-c1ccc(Br)cc1
inactive: UACC-257 > 100 µM | SK-MEL-28 > 100 µM | K562 > 100 µM | T47D > 100 µM | SF-268 > 100 µM | NCI-H460 > 100 µM | NCI-H226 > 100 µM | NCI-H23 > 100 µM | EKVX > 100 µM | SNB-75 > 100 µM | MDA-MB-231 > 100 µM | OVCAR-4 > 100 µM | SF-295 > 100 µM | HOP-92 > 100 µM | SK-OV-3 > 100 µM | Malme-3M 51.8 µM | OVCAR-8 > 100 µM | HCC 2998 > 100 µM

O=C(Cc1nc2ccccc2s1)C(=O)Nc1ccccc1C(F)(F)F
inactive: UACC-257 > 100 µM | SK-MEL-28 > 100 µM | K562 > 100 µM | SF-268 > 100 µM | NCI-H460 > 100 µM | NCI-H226 > 100 µM | NCI-H23 > 100 µM | EKVX > 100 µM | SNB-75 25.1 µM | OVCAR-4 > 100 µM | SF-295 > 100 µM | HOP-92 20.4 µM | SK-OV-3 > 100 µM | SK-MEL-5 > 100 µM | Malme-3M > 100 µM | OVCAR-8 > 100 µM | HCC 2998 > 100 µM

Cc1c/c(=N/NC(=O)c2ccncc2)n2nc(N)sc2n1
inactive: UACC-257 > 100 µM | SK-MEL-28 > 100 µM | K562 > 100 µM | NCI-H460 > 100 µM | NCI-H226 > 100 µM | NCI-H23 > 100 µM | EKVX > 100 µM | SNB-75 40.2 µM | MDA-MB-231 > 100 µM | OVCAR-4 > 100 µM | SF-295 > 100 µM | HOP-92 > 100 µM | SK-OV-3 > 100 µM | SK-MEL-5 > 100 µM | OVCAR-8 > 100 µM | HCC 2998 > 100 µM

O=C(Nc1ccccc1F)c1cc2ccc(O)cc2o/c1=N\c1cccc(F)c1
inactive: UACC-257 19.5 µM | SK-MEL-28 12.3 µM | K562 4.42 µM | T47D 4.25 µM | SF-268 19.2 µM | NCI-H460 6.35 µM | NCI-H23 2.16 µM | EKVX 11.1 µM | OVCAR-4 9.86 µM | SF-295 4.3 µM | SK-OV-3 28.1 µM | Hs-578T 25.6 µM | SK-MEL-5 5.22 µM | Malme-3M 21.6 µM | OVCAR-8 9.48 µM | HCC 2998 15.3 µM

CCN(CC)CCNc1nc2ccc([N+](=O)[O-])cc2[n+]([O-])n1
inactive: UACC-257 15.8 µM | SK-MEL-28 71.6 µM | K562 13.2 µM | T47D 20.1 µM | SF-268 41 µM | NCI-H460 10.4 µM | NCI-H226 83 µM | NCI-H23 18.3 µM | SNB-75 29.3 µM | MDA-MB-231 15.5 µM | OVCAR-4 13.7 µM | SF-295 32.1 µM | HOP-92 32 µM | SK-MEL-5 10.5 µM | Malme-3M 1.75 µM | OVCAR-8 13.5 µM | HCC 2998 11.4 µM

N=C(N)NCCCC(NC(=O)c1c2ccccc2nc2ccccc12)C(=O)O (configuration not stated)
inactive: UACC-257 > 100 µM | SK-MEL-28 > 100 µM | K562 > 100 µM | SF-268 > 100 µM | NCI-H460 > 100 µM | NCI-H226 > 100 µM | NCI-H23 > 100 µM | EKVX > 100 µM | SNB-75 > 100 µM | MDA-MB-231 > 100 µM | OVCAR-4 > 100 µM | SF-295 > 100 µM | HOP-92 > 100 µM | SK-OV-3 > 100 µM | SK-MEL-5 > 100 µM | OVCAR-8 > 100 µM | HCC 2998 > 100 µM

O=C1C=Cc2c(-c3ccccc3)oc3cccc1c23
inactive: UACC-257 35.4 µM | SK-MEL-28 56.9 µM | K562 17.2 µM | SF-268 21.1 µM | NCI-H460 5.07 µM | NCI-H226 11.3 µM | NCI-H23 16.4 µM | EKVX 3.19 µM | SNB-75 4.33 µM | OVCAR-4 40.7 µM | SF-295 25.7 µM | HOP-92 13.4 µM | SK-OV-3 24.4 µM | SK-MEL-5 20.5 µM | Malme-3M 37 µM | OVCAR-8 9.31 µM | HCC 2998 25.6 µM

CN(C)c1ccc(C2C(Cl)C(=O)N2NC(=O)c2c(Cl)c(Cl)c(Cl)c(Cl)c2-c2nc3ccccc3[nH]2)cc1 (configuration not stated)
inactive: UACC-257 20.5 µM | SK-MEL-28 28.1 µM | K562 4.44 µM | T47D 6.62 µM | SF-268 11.5 µM | NCI-H226 15.8 µM | NCI-H23 12.5 µM | EKVX 18.3 µM | SNB-75 15.6 µM | SF-295 42.6 µM | HOP-92 5.4 µM | SK-OV-3 33.7 µM | Hs-578T 33.3 µM | SK-MEL-5 16.1 µM | Malme-3M 16.3 µM | OVCAR-8 2.4 µM | HCC 2998 16.3 µM

Cc1ccnc(NC(=S)Nc2cccc(Cl)c2)c1
inactive: UACC-257 > 100 µM | SK-MEL-28 > 100 µM | K562 > 100 µM | T47D > 100 µM | SF-268 > 100 µM | NCI-H460 > 100 µM | EKVX 12.4 µM | SNB-75 23.1 µM | OVCAR-4 > 100 µM | SF-295 > 100 µM | SK-OV-3 > 100 µM | Hs-578T 74.1 µM | SK-MEL-5 > 100 µM | OVCAR-8 > 100 µM

CCCCN(CCCC)C1(c2cc3ccccc3s2)CCCCC1.[O-][Cl+3]([O-])([O-])O
inactive: UACC-257 18.1 µM | SK-MEL-28 18.4 µM | K562 16.7 µM | T47D 16.2 µM | SF-268 19.2 µM | NCI-H460 13.5 µM | NCI-H226 17.6 µM | NCI-H23 15.5 µM | EKVX 21.1 µM | SNB-75 16.8 µM | MDA-MB-231 15.9 µM | OVCAR-4 15.4 µM | SF-295 13.2 µM | HOP-92 12.5 µM | SK-OV-3 20.4 µM | SK-MEL-5 18.7 µM | OVCAR-8 18.7 µM | HCC 2998 14.1 µM

O=C(NCCO)Nc1c(C(F)(F)F)cc(-c2ccccc2)[nH]c1=O
inactive: UACC-257 > 100 µM | SK-MEL-28 > 100 µM | K562 > 100 µM | T47D > 100 µM | NCI-H460 > 100 µM | NCI-H226 > 100 µM | NCI-H23 > 100 µM | EKVX > 100 µM | MDA-MB-231 > 100 µM | OVCAR-4 > 100 µM | SF-295 > 100 µM | HOP-92 > 100 µM | SK-OV-3 > 100 µM | SK-MEL-5 > 100 µM | OVCAR-8 > 100 µM | HCC 2998 > 100 µM

COC(=O)[C@@H]1[C@H](O)[C@H](C)[C@H](O)[C@@](C)(O)/C=C\C=C(\C)C(=O)Nc2c(C)c(OC(C)=O)c3c(c2O)C(=O)C(C)=C2OCOC(=C23)/C(C)=C/[C@@](C)(O)[C@H](O)[C@@H](C)[C@H]1OC(C)=O
inactive: UACC-257 27.2 µM and 80.4 µM | SK-MEL-28 > 100 µM | K562 23.4 µM | SF-268 4.76 µM | NCI-H460 49 µM | NCI-H226 > 100 µM and 94.2 µM | NCI-H23 27.4 µM | EKVX 78.2 µM | SNB-75 > 66.8 µM | OVCAR-4 55.6 µM | SF-295 88.5 µM | HOP-92 > 66.8 µM | SK-OV-3 82.2 µM | SK-MEL-5 24.5 µM | Malme-3M 31.3 µM | OVCAR-8 31.8 µM | HCC 2998 21.8 µM

CC(=O)NC(CCC(=O)OC(C)(C)C)C(=O)NC(CCC(=O)OC(C)(C)C)C(=O)NC(Cc1ccc([N+](=O)[O-])cc1)C(=O)NC(CCCCNC(=O)OC(C)(C)C)C(=O)NC(CCCCNC(=O)OC(C)(C)C)C(=O)NCC(=O)O (configuration not stated) (Ac-E(OtBu)E(OtBu)[Phe(4-NO2)]K(Boc)K(Boc)G-OH; configuration not given here)
inactive: UACC-257 > 100 µM | SK-MEL-28 > 100 µM | K562 > 100 µM | T47D > 100 µM | SF-268 > 100 µM | NCI-H460 > 100 µM | NCI-H226 > 100 µM | NCI-H23 > 100 µM | EKVX > 100 µM | SNB-75 > 100 µM | MDA-MB-231 > 100 µM | OVCAR-4 > 100 µM | SF-295 > 100 µM | HOP-92 > 100 µM | SK-OV-3 > 100 µM | SK-MEL-5 7.35 µM | Malme-3M > 100 µM | OVCAR-8 > 100 µM | HCC 2998 > 100 µM
